Source: US20200157048A1, “(2E,4E)-5-PHENYL-PENTA-2,4-DIEN-1-ONE DERIVATIVE” (BIOWAY., INC, priority 2018, published 2020)

What was measured:
[1] = system: 3T3-L1 preadipocytes; assay: Oil-Red-O staining of lipid droplets after induction of 3T3-L1 preadipocyte differentiation; format: cell-based, mouse; conditions: 50 μM test material; differentiated 3T3-L1 cells
Description: (§1) 3T3-L1 mouse preadipocytes (American Type Culture Collection) were incubated in an incubator set to 37° C., humidity of 95% and 5% CO2. The 3T3-L1 mouse preadipocytes were sufficiently proliferated using a proliferation medium (Dulbecco's modified Eagle's medium (DMEM) supplemented with 5% fetal bovine serum (FBS), 100 U/mL of penicillin and 100 μg/mL of streptomycin), and treated with a differentiation medium (DMEM containing 5% FBS, 0.5 mM 3-isobutyl-1-methylxanthine, […] dexamethasone and 10 μg/mL insulin) for 4 days. Afterward, the 3T3-L1 mouse preadipocytes were treated with an induction medium (DMEM containing 5% FBS and 10 μg/mL insulin, DMEM containing 5% FBS) for 2 days, and to maintain differentiated adipocytes until the end of the experiment, the induction medium was replaced every day. The 3T3-L1 cells were used in Experimental Examples 1, 2, and 3.
To confirm capacity of inhibiting the formation of lipid droplets of a test material, 3T3-L1 cells, which are preadipocytes, were induced to differentiate into adipocytes, and then the lipid droplets were stained through the Oil-Red-O staining.
First, after preadipocytes, 3T3-L1 cells, were incubated in a dish having a diameter of 10 cm^2, excluding G1 and G2, the cells were treated with 50 μM of a test material previously diluted with a culture medium (refer to Table 2).
Next, for staining, first, the cell supernatant present in a well was removed, and fixed with 4% paraformaldehyde. Afterward, after adding a 100% 1,2-propanediol dehydration solution, the resulting sample was incubated for 5 minutes, and then an Oil-Red-O stain solution was added for staining of lipid droplets. After the Oil-Red-O staining, an 85% 1,2-propanediol stain differential solution was added for washing.
Finally, after filling a well with D.W. without drying the stained well, the formation of lipid droplets was confirmed by observation using a microscope.
After confirming the formation of lipid droplets using Oil-Red-O staining, a part stained with isopropanol was dissolved, and the degree of staining lipid droplets was confirmed by absorbance at 540 nm. The increase/decrease rate, compared to the normal control, was evaluated using an optical density (OD) value.

[2] = system: 3T3-L1 preadipocytes; assay: Triglyceride content after induction of 3T3-L1 preadipocyte differentiation; format: cell-based, mouse; conditions: differentiated 3T3-L1 cells; predetermined concentration of test material
Description: as §1
Preadipocytes, 3T3-L1 cells, were incubated in a dish having a diameter of 10 cm^2 by the same method as described in Experimental Example 1, and then treated with a predetermined concentration of a test material diluted with a culture medium. After treatment, a triglyceride content was confirmed using an assay kit.

[3] = system: 3T3-L1 preadipocytes; assay: Glycerol content after induction of 3T3-L1 preadipocyte differentiation; format: cell-based, mouse; conditions: differentiated 3T3-L1 cells; predetermined concentration of test material
Description: as §1
Preadipocytes, 3T3-L1 cells, were incubated in a dish having a diameter of 10 cm^2 by the same method as described in Experimental Example 1, and then treated with a predetermined concentration of a test material diluted with a culture medium. After treatment, a glycerol content was confirmed using an assay kit.

[4] = target: T1, SIRT1 (Homo sapiens, UniProt Q96EB6); assay: SIRT1 direct fluorescent assay; format: biochemical
T1 construct: purchased Cayman (Ann Arbor, Mich., USA)
T1 sequence (Q96EB6 1-747): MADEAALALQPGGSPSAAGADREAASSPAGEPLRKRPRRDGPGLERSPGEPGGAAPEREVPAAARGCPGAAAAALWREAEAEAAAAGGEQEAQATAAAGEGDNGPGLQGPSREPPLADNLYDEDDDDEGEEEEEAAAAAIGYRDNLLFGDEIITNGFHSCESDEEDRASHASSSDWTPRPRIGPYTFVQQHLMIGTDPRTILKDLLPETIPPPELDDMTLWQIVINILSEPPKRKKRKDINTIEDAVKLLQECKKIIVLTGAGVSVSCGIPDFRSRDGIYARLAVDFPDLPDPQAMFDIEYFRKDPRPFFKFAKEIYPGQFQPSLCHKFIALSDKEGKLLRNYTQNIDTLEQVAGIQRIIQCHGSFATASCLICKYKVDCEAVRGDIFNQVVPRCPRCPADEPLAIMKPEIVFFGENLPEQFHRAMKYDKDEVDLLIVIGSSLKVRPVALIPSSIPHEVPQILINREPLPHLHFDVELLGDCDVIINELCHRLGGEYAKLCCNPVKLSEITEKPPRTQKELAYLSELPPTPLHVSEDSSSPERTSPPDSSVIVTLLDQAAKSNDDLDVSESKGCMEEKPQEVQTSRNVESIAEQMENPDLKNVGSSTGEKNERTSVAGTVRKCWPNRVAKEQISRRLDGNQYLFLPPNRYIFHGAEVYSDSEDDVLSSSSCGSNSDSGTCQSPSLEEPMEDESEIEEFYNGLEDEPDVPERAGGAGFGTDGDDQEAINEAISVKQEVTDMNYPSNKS
Description: All materials were provided from a Sirt1 direct fluorescent screening assay kit (Cayman, Ann Arbor, Mich., USA).
SIRT1, p53 conjugated aminomethyl coumarin (AMC) protein, and 3 mM NAD^+ were added to a diluted analysis buffer (50 mM Tris-HCl, pH 8.0, 137 mM NaCl, 2.7 mM KCl, and 1 mM MgCl2).
25 μL of the analysis buffer, 5 μL of diluted SIRT1, and 5 μL of a solvent were added to each of three 100% initial activity wells of a 96-well plate.
30 μL of the analysis buffer and 5 μL of a solvent were added to each of three background wells of the 96-well plate.
25 μL of the analysis buffer, 5 μL of diluted SIRT1, and 5 μL of a diluted test compound were added to each of three sample wells of the 96-well plate. The final DMSO concentration was less than 2%.
15 μL of a 3 mM NAD^+-containing substrate solution was added to all wells to begin the reaction. The 96-well plate was covered with a plate cover, and then incubated in a shaker at room temperature (25 to 30° C.) for 45 minutes.
A stop/developing solution was prepared. To prepare the final 5 mL solution, 200 μL of nicotinamide (NAM, Sigma-Aldrich) was added to a color developing powder weighing 30 mg, 4.8 mL of a diluted analysis buffer was added thereto, and the resulting mixture was stirred until the powder became a solution.
The plate cover was removed, and 50 μL of the stop/developing solution was added to each well.
The 96-well plate was covered with a plate cover, and incubated at room temperature (25 to 30° C.) for 30 minutes.
The plate cover was removed, and the plate was read using Cytation 5 at an excitation wavelength of 360 nm and an emission wavelength of 450 nm.
The mean fluorescence of each sample was measured.
The fluorescence of the background wells was subtracted from the fluorescence of the 100% initial activity wells and sample wells.
To determine the percent of each sample, each sample value was subtracted from the 100% initial activity value, and the resulting value was divided by the 100% initial activity value and then multiplied by 100 and added to 100, which was expressed as a percentage.

## CSc1ccc(/C=C/C=C/C(=O)N2CCCC(O)C2)cc1 (centres unmarked) [R-7, (2E,4E)-1-(3-hydroxypiperidine-1-yl)-5-(4-(methylthio)phenyl)penta-2,4-dien-1-one]
[1]
  amount of stained lipid droplets (Oil-Red-O dissolved in isopropanol, absorbance at 540 nm, FIG. 2): less than that of the test groups treated with R-3 and 4
[2]
  triglyceride content (FIG. 3): lower than that of the test group treated with R-3
[3]
  glycerol content (FIG. 4): lower than that of the test group treated with R-3

## CSc1ccc(/C=C/C=C/C(=O)N2CCC(O)CC2)cc1 [R-8, (2E,4E)-1-(4-hydroxypiperidine-1-yl)-5-(4-(methylthio)phenyl)penta-2,4-dien-1-one]
[1]
  amount of stained lipid droplets (Oil-Red-O dissolved in isopropanol, absorbance at 540 nm, FIG. 2): less than that of the test groups treated with R-3 and 4
[2]
  triglyceride content (FIG. 3): lower than that of the test group treated with R-3
[3]
  glycerol content (FIG. 4): lower than that of the test group treated with R-3

## COC1CCN(C(=O)/C=C/C=C/c2ccc(SC)cc2)CC1 [R-9, (2E,4E)-1-(4-methoxypiperidine-1-yl)-5-(4-(methylthio)phenyl)penta-2,4-dien-1-one]
[1]
  amount of stained lipid droplets (Oil-Red-O dissolved in isopropanol, absorbance at 540 nm, FIG. 2): less than that of the test groups treated with R-3 and 4
[2]
  triglyceride content (FIG. 3): lower than that of the test group treated with R-3
[3]
  glycerol content (FIG. 4): lower than that of the test group treated with R-3

## CSc1ccc(/C=C/C=C/C(=O)N2CCC(NC(C)=O)CC2)cc1 [R-11, N-(1-((2E,4E)-5-(4-(methylthio)phenyl)penta-2,4-dienoyl)piperidine-4-yl)acetamide]
[1]
  amount of stained lipid droplets (Oil-Red-O dissolved in isopropanol, absorbance at 540 nm, FIG. 2): less than that of the test groups treated with R-3 and 4
[2]
  triglyceride content (FIG. 3): lower than that of the test group treated with R-3
[3]
  glycerol content (FIG. 4): lower than that of the test group treated with R-3

## COc1ccc(/C=C/C=C/C(=O)N2CCN(C)CC2)cc1 [R-15, (2E,4E)-5-(4-methoxyphenyl)-1-(4-methylpiperazine-1-yl)penta-2,4-dien-1-one]
[1]
  amount of stained lipid droplets (Oil-Red-O dissolved in isopropanol, absorbance at 540 nm, FIG. 2): less than that of the test groups treated with R-3 and 4
[2]
  triglyceride content (FIG. 3): lower than that of the test group treated with R-3
[3]
  glycerol content (FIG. 4): lower than that of the test group treated with R-3

## CSc1ccc(/C=C/C=C/C(=O)N2CCN(C(C)=O)CC2)cc1 [R-17, (2E,4E)-1-(4-acetylpiperazine-1-yl)-5-(4-(methylthio)phenyl)penta-2,4-dien-1-one]
[1]
  amount of stained lipid droplets (Oil-Red-O dissolved in isopropanol, absorbance at 540 nm, FIG. 2): less than that of the test groups treated with R-3 and 4
[2]
  triglyceride content (FIG. 3): lower than that of the test group treated with R-3
[3]
  glycerol content (FIG. 4): lower than that of the test group treated with R-3

## CCOC(=O)N1CCN(C(=O)/C=C/C=C/c2cccc(OC)c2)CC1 [R-22, Ethyl ((2E,4E)-5-(3-methoxyphenyl)penta-2,4-dienoyl)piperazine-1-carboxylate]
[4]; 2 μM
  increase of SIRT1 activity (FIG. 18): about 5%

## COc1ccc(/C=C/C=C/C(=O)N2CCN(C(=O)OC(C)C)CC2)cc1 [R-26, Isopropyl 4-((2E,4E)-5-(4-methoxyphenyl)penta-2,4-dienoyl)piperazine-1-carboxylate]
[4]; 10 μM
  increase of SIRT1 activity (FIG. 18): ≥ 10%

## CSc1ccc(/C=C/C=C/C(=O)N2CCN(C(=O)OC(C)(C)C)CC2)cc1 [R-28, Tert-butyl 4-((2E,4E)-5-(4-(methylthio)phenyl)penta-2,4-dienoyl)piperazine-1-carboxylate]
[1]
  amount of stained lipid droplets (Oil-Red-O dissolved in isopropanol, absorbance at 540 nm, FIG. 2): less than that of the test groups treated with R-3 and 4
[2]
  triglyceride content (FIG. 3): lower than that of the test group treated with R-3
[3]
  glycerol content (FIG. 4): lower than that of the test group treated with R-3

## COc1ccc(/C=C/C=C/C(=O)N2CCOCC2)cc1 [R-29, (2E,4E)-5-(4-methoxyphenyl)-1-morpholinopenta-2,4-dien-1-one]
[1]
  amount of stained lipid droplets (Oil-Red-O dissolved in isopropanol, absorbance at 540 nm, FIG. 2): less than that of the test groups treated with R-3 and 4
[2]
  triglyceride content (FIG. 3): lower than that of the test group treated with R-3
[3]
  glycerol content (FIG. 4): lower than that of the test group treated with R-3

## CSc1ccc(/C=C/C=C/C(=O)N2CCOCC2)cc1 [R-30, (2E,4E)-5-(4-(methylthio)phenyl)-1-morpholinopenta-2,4-dien-1-one]
[1]
  amount of stained lipid droplets (Oil-Red-O dissolved in isopropanol, absorbance at 540 nm, FIG. 2): less than that of the test groups treated with R-3 and 4
[2]
  triglyceride content (FIG. 3): lower than that of the test group treated with R-3
[3]
  glycerol content (FIG. 4): lower than that of the test group treated with R-3
